The values that follow come from US20260364184A1, “COMPOUND BASED ON OXOISOINDOLINYL-SUBSTITUTED TETRAHYDROPYRIMIDINE-DIONE AND USE THEREOF” (GLUETACS THERAPEUTICS (SHANGHAI) CO., LTD., priority 2023, published 2026).

Holding throughout (type): cell-based
One test addresses T1, AR (Homo sapiens, UniProt P10275).
T1 construct: expression of target proteins in cells; endogenous in cells
T1 sequence (P10275 1-920): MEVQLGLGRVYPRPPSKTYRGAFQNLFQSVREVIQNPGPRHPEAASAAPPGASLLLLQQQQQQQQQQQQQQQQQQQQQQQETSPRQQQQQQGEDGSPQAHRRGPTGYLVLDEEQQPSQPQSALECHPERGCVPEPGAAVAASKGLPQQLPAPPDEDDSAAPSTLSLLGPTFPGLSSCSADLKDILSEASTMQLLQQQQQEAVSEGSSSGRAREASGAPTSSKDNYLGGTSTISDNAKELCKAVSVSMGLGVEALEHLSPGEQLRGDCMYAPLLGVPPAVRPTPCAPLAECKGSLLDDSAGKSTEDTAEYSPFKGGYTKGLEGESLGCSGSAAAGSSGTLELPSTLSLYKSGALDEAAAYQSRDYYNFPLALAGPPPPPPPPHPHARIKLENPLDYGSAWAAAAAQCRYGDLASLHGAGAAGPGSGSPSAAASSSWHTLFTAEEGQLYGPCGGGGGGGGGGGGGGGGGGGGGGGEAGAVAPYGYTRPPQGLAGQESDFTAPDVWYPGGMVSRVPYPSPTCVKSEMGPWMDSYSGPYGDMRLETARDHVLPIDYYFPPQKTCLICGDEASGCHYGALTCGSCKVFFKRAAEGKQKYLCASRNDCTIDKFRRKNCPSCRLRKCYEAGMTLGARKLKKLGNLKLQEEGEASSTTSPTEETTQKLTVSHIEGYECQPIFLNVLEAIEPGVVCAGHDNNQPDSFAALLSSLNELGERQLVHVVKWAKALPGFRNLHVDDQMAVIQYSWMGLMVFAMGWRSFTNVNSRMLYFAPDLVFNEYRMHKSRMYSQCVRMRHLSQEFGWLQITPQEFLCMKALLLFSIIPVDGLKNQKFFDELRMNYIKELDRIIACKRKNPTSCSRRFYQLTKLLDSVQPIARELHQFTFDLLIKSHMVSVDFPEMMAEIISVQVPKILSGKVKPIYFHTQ
In words: Western blot degradation of AR. The note with it: LnCap Cell; 24 hours. As to the method: Conventional Western blot assay was performed to evaluate the effects of the compounds of the present disclosure on the expression of target proteins in cells.
(1) Cell Seeding and Protein Harvesting: The selected cells were processed according to the cell seeding procedure and protein harvesting procedure in Table II-2.
(2) To the collected supernatant, 5×SDS sample loading buffer was added, followed by denaturation at 95 °C for 5 minutes. The denatured samples were then separated by SDS-PAGE electrophoresis on a polyacrylamide gel. Proteins were transferred to a nitrocellulose membrane (0.45 μm NC membrane), blocked with blocking buffer at room temperature for 1 hour, and subjected to antibody incubation and development procedures according to the antibody manufacturer's instructions (Cell Signaling Technology).
Half-Maximal Degradation Concentration value (the drug concentration required for degrading proteins by 50%, abbreviated as DC50) reads method: comparing the grayscale values of Western blot bands from drug-treated samples with those from blank DMSO-treated controls, and identifying the drug concentration range at which the grayscale value is half that of the DMSO-treated control bands.
DC50 values can be calculated using ImageJ software to measure grayscale values of Western blot bands from drug-treated samples. The concentration-response curve is fitted to estimate the drug concentration corresponding to half the grayscale value.
Target protein remaining (%) refers to the percentage of target protein remaining in cells after treatment with protein degrader compounds.
Calculation method for target protein remaining (%): Use ImageJ software to measure grayscale values of Western blot bands from drug (protein degrader)-treated samples. The grayscale value of drug-treated bands is divided by that of internal control protein bands, and the resulting quotient is normalized to obtain the relative percentage of remaining target protein after protein degrader treatment.
Target protein degradation rate (%)=1−target protein remaining (%).

For test [1], the system named is Human diffuse large B-cell lymphoma cell line (TMD8). In words: Inhibition of TMD8 cell proliferation (CellTiter luminescent viability). The note with it: Homo sapiens, TMD8, 96 h, Table IF1, AR inhibitor-based; for inhibition at 0.01 µM: TMD8, 10 nM, read-out: Inhibition Rate at 10 nM (%); for inhibition at 0.5 µM: TMD8, 500 nM, read-out: Inhibition Rate at 500 nM (%).

Test [2] concerns Human acute lymphocytic leukemia T lymphocytes cell line (CCRF-CEM). In words: Inhibition of CCRF-CEM cell proliferation (CellTiter luminescent viability). The settings on record: Homo sapiens, 96 h, Table IF2, AR inhibitor-based; for inhibition at 0.01 µM: 10 nM, read-out: Inhibition Rate at 10 nM (%); for inhibition at 0.5 µM: 500 nM, read-out: Inhibition Rate at 500 nM (%).
The test system of test [3] is Human T lymphocytic leukemia cell line (Jurkat). The test can be described thus: Inhibition of Jurkat cell proliferation (CellTiter luminescent viability). The settings on record: Homo sapiens, Table IF3, AR inhibitor-based, 96 hours. As to the method:
The tumor cells used herein were cultured in a cell culture medium listed in table 3 at 37 °C in an incubator with 5% CO2. Prior to experimentation, all cell lines used were correctly identified by STR profiling, and tested negative for mycoplasma contamination using a mycoplasma detection kit through routine screenings.
The IC50 values of the compounds of the present disclosure (including the compounds in Table 1, Table 2, and Examples 1-468) were determined using the CellTiter-Meiluncell Luminescent Cell Viability Assay Kit from Dalian Meilun Biotech Co., Ltd. The detailed procedure is as follows: Tumor cells were seeded in 96-well cell culture plates at the densities specified in Table 4. On the following day, the test compounds of the present disclosure were subjected to serial dilution. The dilution can be performed according to one of the following two methods: • (1) The first dilution method: The test compounds of the present disclosure (including the compounds in Table 1, Table 2, and Examples 1-468) were subjected to 5-fold serial dilutions starting from a highest concentration of 2000 μM, resulting in a total of 9 concentrations from high to low (2000, 400, 80, 16, 3.2, 0.64, 0.128, 0.0256, 0.00512 μM). Subsequently, 0.5 μL of the test compound dilution was transferred into the 96-well plate containing the cells, with each well containing 100 μL of cell culture medium. […] Into the 96-well plate, the diluted test compounds and corresponding detection reagents were added, resulting in final test compound concentrations of 500 nM and 10 nM, respectively. The experimental procedure is described below using the diluted 2 μM test compound as an example.
0.5 μL of the aforementioned diluted compound of the present disclosure (including the compounds in Table 1, Table 2, and Examples 1-468) was added to the seeded cells in 100 μL of medium, yielding a final test compound concentration of 10 nM. After the cells were treated with the compounds of the present disclosure for a specified period, the cell viability assay reagent was added to the culture medium according to the kit's instructions to determine cell viability. […] All controls were treated using the same procedure as the compounds of the present disclosure. The growth inhibition curves for the compounds of the present disclosure were plotted using Prism GraphPad software, and the IC50 values were calculated therefrom.

Turning to `Cc1ccc(-c2c(C)noc2C)cc1N(CC1CCN(Cc2ccc3c(c2)C(=O)N(N2CCC(=O)NC2=O)C3=O)CC1)c1ccc(C2(C#N)CC2)cc1` [GT-06410, 1-(4-((5-(3,5-dimethylisoxazol-4-yl)-2-methylphenyl)((1-((2-(2,4-dioxotetrahydropyrimidin-1(2H)-yl)-1,3-dioxoisoindolin-5-yl)methyl)piperidin-4-yl)methyl)amino)phenyl)cyclopropane-1-carbonitrile], the “Degradation of substrate protein AR (substrate protein remaining %)” value (from here on “Degradation … (substrate protein remaining %)”) at AR was “A (0%≤substrate protein remaining %≤80%)”.
Take `N#Cc1ccc(O[C@H]2CC[C@H](NC(=O)c3ccc(N4CCC(CN5CCN(c6ccc7c(c6)C(=O)N(N6CCC(=O)NC6=O)C7=O)CC5)CC4)nn3)CC2)cc1Cl` [GT-05225, N-((1r,4r)-4-(3-chloro-4-cyanophenoxy)cyclohexyl)-6-(4-((4-(2-(2,4-dioxotetrahydropyrimidin-1(2H)-yl)-1,3-dioxoisoindolin-5-yl)piperazin-1-yl)methyl)piperidin-1-yl)pyridazine-3-carboxamide]: on AR, the “Degradation … (substrate protein remaining %)” value was “A (0%≤substrate protein remaining %≤80%)”.
Usually inhibition stands for the relative decrease from the control value, in per cent. As for `N#Cc1ccc(O[C@H]2CC[C@H](NC(=O)c3ccc(N4CCC(CN5C6CCC5CN(c5ccc7c(c5)C(=O)N(N5CCC(=O)NC5=O)C7=O)C6)CC4)nn3)CC2)cc1Cl` [GT-05824, N-((1r,4r)-4-(3-chloro-4-cyanophenoxy)cyclohexyl)-6-(4-((3-(2-(2,4-dioxotetrahydropyrimidin-1(2H)-yl)-1,3-dioxoisoindolin-5-yl)-3,8-diazabicyclo[3.2.1]octan-8-yl)methyl)piperidin-1-yl)pyridazine-3-carboxamide], the inhibition at 0.01 µM in test [1] was 15 to 20%; in test [2], 10 to 15%; in test [3] (10 nM, read-out: Inhibition Rate at 10 nM (%)) it was 5 to 10%. Further, the inhibition at 0.5 µM in test [1] was in the range of 40 to 60%; in test [2] it was 30 to 40%; in test [3] (500 nM, read-out: Inhibition Rate at 500 nM (%)) it was 30 to 40%. At AR, the “Degradation … (substrate protein remaining %)” value is on record as “A (0%≤substrate protein remaining %≤80%)”.
For the molecule `Cn1cc(-c2cc(S(C)(=O)=O)ccc2OCc2ccc3c(c2)CN(N2CCC(=O)NC2=O)C3=O)c2cc[nH]c2c1=O` [GT-06413, 1-(5-((2-(6-methyl-7-oxo-6,7-dihydro-1H-pyrrolo[2,3-c]pyridin-4-yl)-4-(methylsulfonyl)phenoxy)methyl)-1-oxoisoindolin-2-yl)dihydropyrimidine-2,4 (1H,3H)-dione], the “Degradation … (substrate protein remaining %)” value on AR is listed as “A (0%≤substrate protein remaining %≤80%)”.
Turning to `Cc1ccc(-c2c(C)noc2C)cc1N(CC1CCN(CC2CCN(c3ccc4c(c3)C(=O)N(N3CCC(=O)NC3=O)C4=O)CC2)CC1)c1ccc(C2(C#N)CC2)cc1` [GT-06418, 1-(4-((5-(3,5-dimethylisoxazol-4-yl)-2-methylphenyl)((1-((1-(2-(2,4-dioxotetrahydropyrimidin-1(2H)-yl)-1,3-dioxoisoindolin-5-yl)piperidin-4-yl)methyl)piperidin-4-yl)methyl)amino)phenyl)cyclopropane-1-carbonitrile], the “Degradation … (substrate protein remaining %)” value on AR was “A (0%≤substrate protein remaining %≤80%)”.
On the same count and under the same terms, the result for `Cc1ccc(-c2c(C)noc2C)cc1N(CC1CCN(Cc2ccc3c(c2)CN(N2CCC(=O)NC2=O)C3=O)CC1)c1ccc(C2(C#N)CC2)cc1` [GT-06409, 1-(4-((5-(3,5-dimethylisoxazol-4-yl)-2-methylphenyl)((1-((2-(2,4-dioxotetrahydropyrimidin-1(2H)-yl)-1-oxoisoindolin-5-yl)methyl)piperidin-4-yl)methyl)amino)phenyl)cyclopropane-1-carbonitrile] reads “A (0%≤substrate protein remaining %≤80%)”.
Take `N#Cc1ccc(O[C@H]2CC[C@H](NC(=O)c3ccc(N4CCC(CN5CCN(C6CCN(c7ccc8c(c7)C(=O)N(N7CCC(=O)NC7=O)C8=O)CC6)CC5)CC4)nn3)CC2)cc1Cl` [GT-05829, N-((1r,4r)-4-(3-chloro-4-cyanophenoxy)cyclohexyl)-6-(4-((4-(1-(2-(2,4-dioxotetrahydropyrimidin-1(2H)-yl)-1,3-dioxoisoindolin-5-yl)piperidin-4-yl)piperazin-1-yl)methyl)piperidin-1-yl)pyridazine-3-carboxamide]: the inhibition at 0.01 µM fell in the range of 10 to 15% in test [1] and 15 to 20% in test [2]. In addition, the inhibition at 0.5 µM in test [1] was 35 to 40%; in test [2] it was 20 to 30%. The “Degradation … (substrate protein remaining %)” value on AR is given as “A (0%≤substrate protein remaining %≤80%)”.
With `CC1(C)[C@H](NC(=O)c2ccc(N3CCC(CN4CCN(c5ccc6c(c5F)C(=O)N(N5CCC(=O)NC5=O)C6=O)CC4)CC3)nc2)C(C)(C)[C@H]1Oc1ccc(C#N)c(Cl)c1` [GT-05828, N-((1r,3r)-3-(3-chloro-4-cyanophenoxy)-2,2,4,4-tetramethylcyclobutyl)-6-(4-((4-(2-(2,4-dioxotetrahydropyrimidin-1(2H)-yl)-4-fluoro-1,3-dioxoisoindolin-5-yl)piperazin-1-yl)methyl)piperidin-1-yl)nicotinamide], the “Degradation … (substrate protein remaining %)” value on AR is given as “A (0%≤substrate protein remaining %≤80%)”.
